# Data published in ChEMBL document CHEMBL1132523, “Preventive effect of sesquiterpenes from bay leaf on blood ethanol elevation in ethanol-loaded rat: structure requirement and suppression of gastric emptying” (1999).
# Several values for one entry are separate records, joined by “and”; a condition that tells them apart may be missing. Equal entries are not always repeated.
# Tests used:
# Rattus norvegicus [1] = test: Effect of compound (25 mg/kg) on Blood Ethanol level in Ethanol loaded rats after 2 hr; type: functional
# Rattus norvegicus [2] = test: Effect of compound (50 mg/kg) on Blood Ethanol level in Ethanol loaded rats after 2 hr; type: functional
# Rattus norvegicus [3] = test: Effect of compound (25 mg/kg) on Blood Ethanol level in Ethanol loaded rats after 30 minutes; type: functional
# Rattus norvegicus [4] = test: Effect of compound (50 mg/kg) on Blood Ethanol level in Ethanol loaded rats after 30 minutes; type: functional
# Rattus norvegicus [5] = test: Effect of compound (50 mg/kg) on Blood Ethanol level in Ethanol loaded rats after 1 hr; type: functional
# Rattus norvegicus [6] = test: Effect of compound (25 mg/kg) on Blood Ethanol level in Ethanol loaded rats after 1 hr; type: functional
# Rattus norvegicus [7] = test: Effect of compound (25 mg/kg) on Gastric emptying time in Ethanol loaded rats after 30 minutes; type: functional, Stomach
# Rattus norvegicus [8] = test: Effect of compound (25 mg/kg) on Serum glucose level in glucose loaded rats after 1 hr; type: functional, organism-based
# Rattus norvegicus [9] = test: Effect of compound (50 mg/kg) on Gastric emptying time in Ethanol loaded rats after 30 minutes; type: functional, Stomach
# Rattus norvegicus [10] = test: Effect of compound (50 mg/kg) on Gastric emptying in Ethanol loaded rats after 30 minutes; type: functional, Stomach
# Rattus norvegicus [11] = test: Effect of compound (50 mg/kg) on Serum glucose level in glucose loaded rats after 30 minutes; type: functional, organism-based
# Rattus norvegicus [12] = test: Effect of compound (25 mg/kg) on Gastric emptying in Ethanol loaded rats after 30 minutes; type: functional, Stomach
# Rattus norvegicus [13] = test: Effect of compound (50 mg/kg) on Serum glucose level in glucose loaded rats after 1 hr; type: functional, organism-based
# Rattus norvegicus [14] = test: Effect of compound (25 mg/kg) on Serum glucose level in glucose loaded rats after 30 minutes; type: functional, organism-based
# Rattus norvegicus [15] = test: Effect of compound (25 mg/kg) on Serum glucose level in glucose loaded rats after 2 hr; type: functional, organism-based
# Rattus norvegicus [16] = test: Effect of compound (50 mg/kg) on Serum glucose level in glucose loaded rats after 2 hr; type: functional, organism-based
# Rattus norvegicus [17] = test: Effect of compound (12.5 mg/kg) on Gastric emptying in Ethanol loaded rats after 30 minutes; type: functional, Stomach
# Rattus norvegicus [18] = test: Effect of compound (12.5 mg/kg) on Blood Ethanol level in Ethanol loaded rats after 2 hr; type: functional
# Rattus norvegicus [19] = test: Effect of compound (12.5 mg/kg) on Blood Ethanol level in Ethanol loaded rats after 30 minutes; type: functional
# Rattus norvegicus [20] = test: Effect of compound (12.5 mg/kg) on Blood Ethanol level in Ethanol loaded rats after 1 hr; type: functional
structure (smiles),measurement,setting,value
C=C1CCC[C@]2(C)CC[C@@H](C(C)(C)O)C[C@@H]12 [BETA-EUDESMOL],Activity,Rattus norvegicus [1],0.2 mg/mL
same,Blood ethanol level,Rattus norvegicus [2],0.2 mg/mL
same,Blood ethanol concentration,Rattus norvegicus [3],0.79 mg/mL
same,Blood ethanol concentration,Rattus norvegicus [4],0.77 mg/mL
same,Activity,Rattus norvegicus [5],0.73 mg/mL
same,Activity,Rattus norvegicus [6],0.7 mg/mL
C=C1C(=O)O[C@@H]2/C=C(\C)CC/C=C(\C)CC[C@@H]12 [COSTUNOLIDE],Inhibition,Rattus norvegicus [7],25.5%
same,Activity,Rattus norvegicus [1],0.1 mg/mL
same,Blood ethanol level,Rattus norvegicus [2],0.19 mg/mL
same,Serum glucose,Rattus norvegicus [8],151 mg/dL
same,Inhibition,Rattus norvegicus [9],42.1%
same,Inhibition,Rattus norvegicus [10],48.2%
same,Blood ethanol concentration,Rattus norvegicus [3],0.23 mg/mL
same,Serum glucose,Rattus norvegicus [11],171 mg/dL
same,Blood ethanol concentration,Rattus norvegicus [4],0.18 mg/mL
same,Activity,Rattus norvegicus [5],0.21 mg/mL
same,Inhibition,Rattus norvegicus [12],62.1%
same,Serum glucose,Rattus norvegicus [13],150 mg/dL
same,Activity,Rattus norvegicus [6],0.2 mg/mL
same,Serum glucose,Rattus norvegicus [14],179 mg/dL
same,Serum glucose,Rattus norvegicus [15],117 mg/dL
same,Serum glucose,Rattus norvegicus [16],112 mg/dL
C=C1CC[C@H]2C(=C)CC[C@H]3C(=C)C(=O)O[C@@H]3[C@@H]12 [DEHYDROCOSTUSLACTONE],Activity,Rattus norvegicus [1],0.2 mg/mL
same,Blood ethanol level,Rattus norvegicus [2],0.19 mg/mL
same,Blood ethanol concentration,Rattus norvegicus [3],0.57 mg/mL
same,Blood ethanol concentration,Rattus norvegicus [4],0.2 mg/mL
same,Activity,Rattus norvegicus [5],0.23 mg/mL
same,Activity,Rattus norvegicus [6],0.4 mg/mL
C=C1C(=O)O[C@@H]2[C@H]3C(C)=CC[C@@H](O)[C@]3(C)CC[C@@H]12 [SANTAMARIN],Activity,Rattus norvegicus [1],0.2 mg/mL
same,Blood ethanol level,Rattus norvegicus [2],0.18 mg/mL
same,Blood ethanol concentration,Rattus norvegicus [3],0.4 mg/mL
same,Blood ethanol concentration,Rattus norvegicus [4],0.2 mg/mL
same,Activity,Rattus norvegicus [5],0.21 mg/mL
same,Activity,Rattus norvegicus [6],0.43 mg/mL
C=C1CCOC1=O [TULIPALINE A],Activity,Rattus norvegicus [1],0.01 mg/mL
same,Blood ethanol level,Rattus norvegicus [2],0.01 mg/mL
same,Inhibition,Rattus norvegicus [17],47.9% and 38.8%
same,Activity,Rattus norvegicus [18],0.39 mg/mL
same,Blood ethanol concentration,Rattus norvegicus [3],0.09 mg/mL
same,Activity,Rattus norvegicus [19],0.32 mg/mL
same,Blood ethanol concentration,Rattus norvegicus [4],0.04 mg/mL
same,Activity,Rattus norvegicus [5],0.1 mg/mL
same,Inhibition,Rattus norvegicus [12],33.5% and 57.2%
same,Activity,Rattus norvegicus [6],0.17 mg/mL
same,Activity,Rattus norvegicus [20],0.7 mg/mL
